Results reported in US7317100B2, “Epothilone derivatives” (Novartis AG, priority 2002, dated 2008).

Experiments:
[1] = test system: KB-31 epidermoid carcinoma cells; test: Cell growth inhibition, KB-31 epidermoid carcinoma cells (methylene blue staining); assay type: cell-based, human; conditions: KB-31 cells, 4 days incubation with compound
Experimental: (§1) Stock solutions of the test compounds (10 mM) are prepared in DMSO and stored at −20° C. Human KB-31 and (multidrug-resistant, P-gp170 overexpressing) KB-8511 epidermoid carcinoma cells originate from Dr. M. Baker, Roswell Park Memorial institute (Buffalo, N.Y., USA) (description: see also Akiyama et al., Somat. Cell. Mol. Genetics 11, 117-126 (1985) and Fojo A., et al., Cancer Res. 45, 3002-3007 (1985) -KB-31 and KB-8511 are both derivatives of the KB cell line (ATCC). KB 31 cells may be cultivated in monolayers using RPMI-1640 medium (Amimed, BioConcept, Allschwil, Switzerland) with 10% foetal calf serum (Amimed, BioConcept, Allschwil, Switzerland), L-glutamine (Amimed, BioConcept, Allschwil, Switzerland), penicillin (50 units/ml) and streptomycin (50 μg/ml (Amimed, BioConcept, Allschwil, Switzerland). KB-8511 is a variant derived from the KB-31 cell line, which was obtained using colchichine treatment cycles, and has an approximately 40 times relative resistance to colchichine compared with KB-31 cells (Akiyama et al., Somat. Cell. Mol. Genetics 11, 117-126 (1985) and Fojo A., et al., Cancer Res. 45, 3002-3007 (1985)). The cells are incubated at 37° C. in an incubator with 5% v/v CO2 and at 80% relative humidity with RPMI-1640 medium complemented as described above. The cells are seeded in a quantity of 1.5×10^3 cells/well in 96-well microtitre plates, and incubated over night. Serial dilutions of the test compounds in culture medium are added on day 1. The plates are then incubated for a further 4 days, after which the cells are fixed with 3.3% v/v glutaraldehyde, washed with water and dyed with 0.05% w/v methylene blue. After washing, the dye is eluted with 3% HCl and the optical density measured at 665 nm with a SpectraMax 340 (Molecular Devices, Sunnyvale, Calif.). IC50 values are determined by adaptation of mathematical curves, using the SoftProprogramme (Version 2.0 or later; Molecular Devices, Sunnyvale, Calif.) and using the formula [(OD treated)−(OD start)]/[(OD control)−(OD start)]×100. […]

[2] = test system: KB-8511 (multidrug-resistant, P-gp170 overexpressing) epidermoid carcinoma cells; test: Cell growth inhibition, multidrug-resistant KB-8511 epidermoid carcinoma cells (methylene blue staining); assay type: cell-based, human; conditions: KB-8511 cells (P-gp170 overexpressing), 4 days incubation with compound
Experimental: as §1

[3] = biological target: T1, porcine microtubule protein (tubulin plus microtubule-associated proteins) (Sus scrofa, UniProt P02554); test: Test-compound-induced polymerisation of porcine microtubule protein (inhibition of microtubule depolymerisation); assay type: biochemical, pig; conditions: test compound 4 uM, porcine microtubule protein (Batch #9) 0.8 mg/ml; 25 μM epothilone B = 100% polymerization, vehicle = 0%
T1 construct: extracted from pigs' brain by two cycles of temperature-dependent depolymerisation/polymerisation; from tissue; host or cells: pig brain
T1 sequence (P02554 whole entry): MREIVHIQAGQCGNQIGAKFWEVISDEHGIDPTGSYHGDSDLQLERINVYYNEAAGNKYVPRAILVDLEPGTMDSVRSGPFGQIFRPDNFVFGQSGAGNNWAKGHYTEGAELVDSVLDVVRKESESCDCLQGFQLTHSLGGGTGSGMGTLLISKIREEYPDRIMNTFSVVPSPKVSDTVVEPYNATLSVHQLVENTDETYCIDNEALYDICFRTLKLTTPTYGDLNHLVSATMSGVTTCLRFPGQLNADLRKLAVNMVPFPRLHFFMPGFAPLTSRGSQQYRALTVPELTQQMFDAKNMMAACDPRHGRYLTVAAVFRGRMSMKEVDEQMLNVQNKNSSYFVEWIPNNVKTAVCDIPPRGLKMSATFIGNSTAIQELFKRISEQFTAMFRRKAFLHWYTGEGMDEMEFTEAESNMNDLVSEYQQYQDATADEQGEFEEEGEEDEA
T1 sequence (P02550 whole entry partner): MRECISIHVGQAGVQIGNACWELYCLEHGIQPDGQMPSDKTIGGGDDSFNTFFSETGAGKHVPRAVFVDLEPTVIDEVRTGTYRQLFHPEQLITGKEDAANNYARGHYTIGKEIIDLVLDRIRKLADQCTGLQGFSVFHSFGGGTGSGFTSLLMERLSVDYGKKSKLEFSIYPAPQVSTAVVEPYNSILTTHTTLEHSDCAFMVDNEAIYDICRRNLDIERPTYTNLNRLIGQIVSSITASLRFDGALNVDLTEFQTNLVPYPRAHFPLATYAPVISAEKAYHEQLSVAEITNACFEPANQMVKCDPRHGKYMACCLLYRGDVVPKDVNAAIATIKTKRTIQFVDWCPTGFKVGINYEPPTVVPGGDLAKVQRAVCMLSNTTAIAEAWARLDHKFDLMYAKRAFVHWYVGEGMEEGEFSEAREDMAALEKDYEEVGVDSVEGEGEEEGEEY
Experimental: Stock solutions of the test compounds (10 mM) are prepared in DMSO and stored at −20° C. […] The degree of test-compound-induced polymerisation of porcine microtubule protein is determined basically as already known (see Lin et al., Cancer Chem. Pharm. 1996; 38:136-140). To summarise, a working aliquot of porcine microtubule protein is rapidly thawed and then diluted to 2× final desired concentration in ice-cold 2× MEM buffer (200 ml MES, 2 mM EGTA, 2 mM MgCl2, pH 6.7) [MES=2-morpholinoethanesulphonic acid, EGTA=ethylene glycol-bis-2(2-aminoethyl)-tetraacetic acid]. Drug or vehicle (DMSO, final concentration 5%) is diluted in water at room temperature to 2× the final desired concentration in a 0.5 ml eppendorf tube, and then put on ice. Following addition of an equal volume (50 μl) of microtubule protein (2× final desired concentration in 2× MEM buffer), the polymerization reaction is started by transferring the incubation mixtures to a room-temperature water bath for 5 min. The reaction mixtures are then placed in an Eppendorf microcentrifuge (model 5415 C) and incubated for an additional 15 min at room temperature. The samples are then centrifuged for 15 min at 14,000 rpm at room temperature. As an indirect measure for microtubule protein polymerization, the protein concentration of the supernatant (containing the remainder of non-polymerized, soluble microtubule protein) is determined by the Lowry method (DC Assay Kit, Bio-Rad Laboratories, Hercules, Calif.) and the optical density of the colour reaction is measured at 750 nm with a SpectraMax 340 photometer (Molecular Devices, Sunnydale, Calif.). […] Vehicle-treated samples serve as negative control (0% polymerization).
Final assay concentrations of test compound and porcine microtubule protein (Batch #9) were 4 uM and 0.8 mg/ml, respectively.

SMILES	IC50 ([1]; Homo sapiens, KB 3-1, 96 h) [nM]	IC50 ([2]; Homo sapiens, 96 h) [nM]	Tubulin Polymerisation (% of control) [3]	IC50 [1] [nM]	IC50 [2] [nM]
CC(=O)O[C@H]1C(=O)[C@@]2(C)[C@H]([C@H](OC(=O)c3ccccc3)[C@]3(O)C[C@H](OC(=O)[C@H](O)[C@@H](NC(=O)c4ccccc4)c4ccccc4)C(C)=C1C3(C)C)[C@]1(OC(C)=O)CO[C@@H]1C[C@@H]2O [Paclitaxel]	3.76 ± 0.52	739 ± 86	–	–	–
C/C(=C\c1csc(C)n1)[C@@H]1C[C@@H]2O[C@@H]2CCC[C@H](C)[C@H](O)[C@@H](C)C(=O)C(C)(C)[C@@H](O)CC(=O)O1 [Epothilone A]	–	–	76.5 % of control	–	–
C/C(=C\c1csc(C)n1)[C@@H]1C[C@@H]2O[C@]2(C)CCC[C@H](C)[C@H](O)[C@@H](C)C(=O)C(C)(C)[C@@H](O)CC(=O)O1 [Epothilone B]	–	–	93.3 % of control	0.28 ± 0.04	0.2 ± 0.04
C/C(=C\c1csc(C)n1)C1CC2OC2(C)CCCC(C)C(O)C(C)C(=O)C(C)C(O)CC(=O)O1 (stereo not drawn) [Example 1, C4-Desmethyl-Epothilone B]	–	–	93.3 % of control	0.49 ± 0.05	0.8 ± 0.16
